The text below walks through data of patent US20220280513A1, “ENHANCING THE ANTIVIRAL EFFICACY OF RNA VIRUS INHIBITION BY COMBINATION WITH MODULATORS OF PYRIMIDINE METABOLISM” (The Board of Trustees of the Leland Stanford Junior …, priority 2019, published 2022).

Read-outs that look alike come from different tables or passages of the source. Where only a bound is given, the exact number is not on record here.

The test system of series [1] is DENV-2 virus. The series is described as follows: DENV antiviral assay, DENV-Luc replication in A549 cells (FIGS. 8 and 9). The class given is cell-based, dengue serotype 2 (DENV-2) strain 16681. As to the method:
DENV-Luc reporter virus generation: The design of the pDENV-Luc infectious clone derived from dengue serotype 2 (DENV-2) strain 16681 was described in detail by Marceau et al (Marceau et al., 2016). The plasmid was linearized with Xbal and in vitro transcribed into the genomic RNA of DENV-Luc virus using the T7 Megascript Kit (Ambion) in the presence of m7G(5′)ppp(5′)G RNA Cap Structure Analog (NEB). 5 μg DENV-Luc RNA was electroporated into 2×10^6 Vero cells. The transfected cells were resuspended with Dulbecco's modified Eagle's medium (DMEM; Invitrogen) with 10% FBS and 100 U/ml penicillin-streptomycin and transferred into a T-175 flask incubated at 37° C. with 5% CO2. Supernatants were collected and replenished with fresh medium every 24 h from day 17 to 24 post-transfection, pooled together, clarified by centrifugation and stored in aliquots at −80° C. The amount of infectious DENV-Luc virus in the stock was titrated using the TCID50 assay and calculated by the Spearman & Kärber algorithm as described previously (Hierholzer and Killington, 1996).
DENV antiviral assays (For FIGS. 8 and 9): A549 cells were plated overnight at 5,000 cells/well in 96-well plates in complete DMEM and incubated for 24 h at 37° C. Cells were then treated with pyrimidine de novo synthesis inhibitors, and/or salvage inhibitors, and/or R1479 in DMEM supplemented with 20 μM uridine. Four hours after drug addition, cells were infected with DENV-2 virus at a MOI=0.1. After 72 h, DENV-Luc replication was monitored by the production of Renilla luciferase, which was measured using the Renilla-Glo Luciferase Assay System (Promega) according to the specifications of the manufacturer. For the accompanying cell viability assay, A549 cells were seeded at 5,000 cells/well in 96-well plates in complete DMEM and incubated for 24 h at 37° C. Cell were then treated with pyrimidine de novo synthesis inhibitors, and/or salvage inhibitors, and/or R1479 in DMEM supplemented with 20 μM uridine. Following 48 h treatment, cell viability was monitored by ATP levels, which was measured using the CellTiter-Glo Luciferase Assay System (Promega) according to the specifications of the manufacturer.

The target in series [2] is T1, recombinant human UCK2 (Homo sapiens, UniProt Q9BZX2).
T1 construct: 6xHis (C); made in house; host or cells: E. coli BL21(DE3)
T1 sequence (Q9BZX2 1-261): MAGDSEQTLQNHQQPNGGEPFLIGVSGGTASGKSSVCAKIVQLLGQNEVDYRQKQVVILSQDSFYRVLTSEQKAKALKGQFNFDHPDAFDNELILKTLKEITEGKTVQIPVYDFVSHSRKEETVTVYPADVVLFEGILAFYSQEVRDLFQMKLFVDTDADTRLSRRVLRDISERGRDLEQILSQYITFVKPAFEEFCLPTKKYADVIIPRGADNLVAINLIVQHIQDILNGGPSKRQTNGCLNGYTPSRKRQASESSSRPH
The series is described as follows: In vitro enzyme activity assay with recombinant human UCK2 (PK/LDH-coupled, UV 340 nm). It is filed as biochemical. The settings on record: for UCK2 substrate or not (ATP consumption): 250 μM analog in the presence of 50 μM uridine. From the text:
(§1) In order to guide our SAR studies, we developed an enzymatic assay to evaluate the inhibitory effect of each CPU analog against recombinant human UCK2, which was expressed and purified in E. coli. A continuous assay system was optimized by coupling UCK2 activity to the pyruvate kinase (PK) reaction, which in turn was coupled to lactate dehydrogenase (LDH). Overall reaction progress was continuously monitored by detecting the UV absorption change at 340 nm, which was correlated with the ATP consumption by UCK2. The effect of 250 μM of each CPU analog on UCK2 activity was evaluated in the presence of 50 μM uridine. […] We then individually measured the steady state kinetic parameters of UCK2 using uridine, CPU and 5-F-CPU as substrates. Their KM values were 86, 25, and 41 μM, and their kcat/KM values were 2.6×10^5, 1.5×10^5, and 7.3×10^4 s^−1 M^−1 (FIG. 5B).
(§2) Cloning, expression and purification of recombinant human UCK2 and CMPK1: Uridine cytidine kinase 2 (UCK2) was cloned into the pET-21a(+) vector using Ndel and Notl as restriction sites. […] The resulting plasmid was transformed into E. coli BL21(DE3) cells by electroporation, recovered in SOC at 37° C. for 1 h and plated onto LB agar plates with kanamycin overnight at 37° C. A single, isolated colony was inoculated into 30 mL LB supplemented with 50 μg/mL kanamycin and grown at 37° C. with shaking for 15 h. The next day, these cells were used to inoculate 1 L autoclaved LB with 50 μg/mL kanamycin. The flask was shaken at 37° C. When an optical density (OD600) of 0.7 was reached, protein expression was induced with 0.5 mM isopropyl β-D-1-thiogalactopyranoside (IPTG). The temperature was changed to 18° C. and flasks were shaken for an additional 15 h. The cell pellets were collected by spinning the media at 5000 rpm for 10 min. The pellets obtained were frozen by liquid nitrogen and stored in −80° C. for protein purification. Cell pellets were thawed and resuspended in lysis buffer containing Tris (40 mM, pH 7.5), NaCl (10 mM), imidazole (10 mM), DTT (1 mM). Cells were lysed by sonication and centrifuged at 25,000 g for 1 h. The supernatant was incubated with a slurry of Ni-NTA resin for 1 h at 4° C. and loaded onto a column. The nickel column wash buffer was Tris (40 mM, pH 7.5), NaCl (10 mM), DTT (1 mM) and each wash step contained increasing concentrations of imidazole (10, 50, or 250 mM). After SDS-PAGE confirmation of the protein fractions, protein was further purified using fast protein liquid chromatography (FPLC) using buffer A (50 mM Tris-HCl pH 8, 1 mM dithiothreitol (DTT), 10% glycerol) and elution buffer B (50 mM Tris-HCl pH 8, 1mM dithiothreitol (DTT), 10% glycerol with 500 mM NaCl) with changing gradient over a 20 minute from 2% to 100% Buffer B. FPLC eluents containing the protein was concentrated using Am icon centrifugal filter with 3K cut-off and the enzyme was stored in storage buffer (50 mM Tris-HCl pH 7.5, 10% glycerol). Human cytidine monophosphate kinase 1 (CMPK1) was purified as previously described (Deans et al., 2016).
(§3) In vitro enzyme activity assays with recombinant human UCK2: To continuously monitor reaction progress spectrophotometrically, ATP hydrolysis was coupled to NADH oxidation via pyruvate kinase (PK) and lactate dehydrogenase (LDH). Reactions were conducted at room temperature in 100 μL in 96-well plates (Greiner Bio-One, UV-Star, Half Area). Mixtures contained 20 mM HEPES (pH 7.2), 100 mM KCl, 2 mM MgCl2, 300 μM ATP, 0-500 μM uridine, 0-500 μM CPU analogs, 10 nM UCK2, 1 mM phosphoenolpyruvate, 500 μM NADH and 20 units/mL of PK and LDH. Progress was monitored in the linear region using a Biotek Synergy HT and kinetic and inhibition constants were determined using GraphPad Prism 7 (GraphPad Software).

Substrate in series [3]: O=c1ccn([C@@H]2C=C(CO)[C@@H](O)[C@H]2O)c(=O)[nH]1
The description is as above. It is filed as biochemical. The settings on record: other: steady state kinetic parameters of UCK2 with the compound as substrate.
Description: as §1, §2, §3

Substrate in series [4]: O=c1ccn([C@@H]2O[C@H](CO)[C@@H](O)[C@H]2O)c(=O)[nH]1
The series is described as above. It is filed as biochemical. The settings on record: other: steady state kinetic parameters of UCK2 with the compound as substrate.
Description: as §1, §2, §3

Substrate in series [5]: O=c1[nH]c(=O)n([C@@H]2C=C(CO)[C@@H](O)[C@H]2O)cc1F
Described as above. The class given is biochemical. The settings on record: other: steady state kinetic parameters of UCK2 with the compound as substrate.
Description: as §1, §2, §3

The term EC50 denotes the concentration needed to bring the measured effect to its halfway point. For the molecule `[N-]=[N+]=N[C@]1(CO)O[C@@H](n2ccc(N)nc2=O)[C@H](O)[C@@H]1O` [R1479, 4′-azidocytidine], the “influence of GSK983 alone on the antiviral activity of R1479” value in series [1] (1 μM GSK983 added, no CPU, 20 μM uridine) is “negligible influence”. Also, the EC50 was about 35 µM in series [1] (Dengue virus, DENV2, A549, 20 μM uridine, without GSK983 and CPU, read-out: EC50, inhibition of dengue virus replication, R1479 as single agent); at most 8 µM in series [1] (Dengue virus, DENV2, A549, in the presence of 250 μM CPU and 1 μM GSK983, 20 μM uridine, read-out: EC50 of R1479 in combination); about 8 µM in series [1] (in the presence of 250 μM CPU and 1 μM GSK983, 20 μM uridine, read-out: EC50 of R1479 in combination).
Consider `O=c1[nH]c(=O)n([C@@H]2C=C(CO)[C@@H](O)[C@H]2O)cc1F` [5-F-CPU, 1-((1R,4R,5S)-4,5-dihydroxy-3-(hydroxymethyl)cyclopent-2-en-1-yl)-5-fluoropyrimidine-2,4(1H,3H)-dione], for which the “UCK2 substrate or not (ATP consumption)” value in series [2] is listed as “substrates of UCK2”. Moreover, in series [2] (added to assay mixture containing UCK2, uridine (50 μM) and ATP), the “rate of UMP synthesis” value is on record as “dose-dependent decrease”.
The term Ki denotes a measure of affinity in units of concentration, obtained from inhibition or displacement. With `CC1=C[C@@H](n2ccc(=O)[nH]c2=O)[C@H](O)[C@@H]1O` [5′-deoxy-CPU, 1-((1R,4R,5S)-4,5-dihydroxy-3-methylcyclopent-2-en-1-yl)pyrimidine-2,4(1H,3H)-dione], in series [2], the “UCK2 substrate or not (ATP consumption)” value was “inhibitors but not substrates”. Besides, the Ki in series [2] (competitive inhibitors of UCK2, Lineweaver-Burk analysis) amounted to 230 µM.

B1: recombinant human UCK2 (Homo sapiens) (protein)
chain: MAGDSEQTLQNHQQPNGGEPFLIGVSGGTASGKSSVCAKIVQLLGQNEVDYRQKQVVILSQDSFYRVLTSEQKAKALKGQFNFDHPDAFDNELILKTLKEITEGKTVQIPVYDFVSHSRKEETVTVYPADVVLFEGILAFYSQEVRDLFQMKLFVDTDADTRLSRRVLRDISERGRDLEQILSQYITFVKPAFEEFCLPTKKYADVIIPRGADNLVAINLIVQHIQDILNGGPSKRQTNGCLNGYTPSRKRQASESSSRPH
notes: 6xHis (C); made in house; host or cells: E. coli BL21(DE3)
As usually defined, the Km is the substrate concentration at which the rate is half of its maximum. By kcat/Km is commonly meant the turnover number divided by the Michaelis constant. Regarding B1, the Km in series [3] came out at 25 µM; in series [4], 86 µM; in series [5], 41 µM. The kcat/Km in series [3] turned out to be 150000 M⁻¹ s⁻¹; in series [4], 260000 M⁻¹ s⁻¹; in series [5] it was 73000 M⁻¹ s⁻¹.
